Laboratory results reported in patent US6867320B2, “Substituted phenylalkanoic acid derivatives and use thereof” (Asahi Kasei Pharma Corporation, priority 2002, dated 2005).

Key:
[1] = system: PGE2 production from IL-1β-stimulated MG-63 cells; assay: Suppressing action on PGE2 production from IL-1β-stimulated MG-63 cells; format: cell-based; conditions: Homo sapiens, IL-1β 1 ng/ml, 18 hours, read-out: PGE2 production suppression ratio
Method in brief: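 Human osteosarcoma MG-63 cells (2×10^4/well) switched to 0.5% FBS medium, treated with compound, then stimulated with IL-1β at 1 ng/ml final for 18 h. Supernatant PGE2 measured by EIA; suppression ratio calculated against stimulated and unstimulated wells.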

[2] = system: IgE-stimulated footpad edema; assay: Mouse IgE-stimulated footpad edema reaction; format: in vivo; conditions: C57BL/6 male mice, oral 0.1 to 500 mg/kg, compared with positive control group
Method: 4. Suppressing Effect on Mouse IgE-stimulated Footpad Edema Reaction
Suppression on footpad edema caused by IgE antibody as an allergic stimulant was studied by the following method. Groups of C57BL/6 male mice (9- to 11-week old) each consisting of five mice were used for the test. Anti-DNP-BSA IgE serum was subcutaneously administered in a volume of 20 μl to right hind leg footpad of each mouse one day before the test. A test compound was suspended or dissolved in purified water containing 0.5% methylcellulose and orally administered to the test animals at 0.1 to 500 mg/0.2 ml/kg. To the control group, purified water containing 0.5% methylcellulose was administered in a similar manner, which was not added with the test compound. Two hours after the administration of the test compound, 0.2 ml of a solution of DNP-BSA dissolved in physiological saline (Otsuka Pharmaceutical) at 2.5 μg/ml was intravenously administered. The thickness of right hind leg footpad was measured by using a digital thickness gauge (MITSUTOYO) 10, 15, 20, and 30 minutes after the administration of DNP-BSA. A difference of the thickness of footpad measured above and the thickness before the administration of the test compound measured beforehand was regarded as a thickness of edema.
For the thickness of the edema at 10, 15, 20 and 30 minutes after the DNP-BSA administration, a graph was prepared indicating time in abscissa and the edema thickness in ordinate, and edema thickness AUC […] was obtained by calculation according to the following equation. Edema thickness AUC (mm·minute)=1/2×10×A+5×(A+B)/2+5×(B+C)/2+10×(C+D)/2 • A: Edema thickness 10 minutes after DNP-BSA administration • B: Edema thickness 15 minutes after DNP-BSA administration • C: Edema thickness 20 minutes after DNP-BSA administration • D: Edema thickness 30 minutes after DNP-BSA administration
A suppressing ratio on edema of a test compound was obtained by calculation in accordance with the following equation. Edema suppression ratio (%)=[1−B/A]×100 • A: Edema thickness AUC of positive control • B: Edema thickness AUC of test compound administered group (2) Measurement Results

[3] = system: zymosan-stimulated footpad edema; assay: Mouse zymosan-stimulated footpad edema reaction; format: in vivo; conditions: ICR female mice, oral 0.1 to 500 mg/kg, compared with positive control group
Method: 3. Suppressing Effect on Mouse Zymosan-stimulated Footpad Edema Reaction A suppressing effect on footpad edema caused by zymosan as an inflammatory stimulant was studied by the following method. Groups of ICR female mice (6- to 7-week old) each consisting of eight mice were used for the test. A test compound was suspended or dissolved in purified water containing 0.5% methylcellulose and orally administered to the test animals at 0.1 to 500 mg/0.2 ml/kg. To the control group, purified water containing 0.5% methylcellulose was administered in a similar manner, which was not added with a test compound. One hour after the administration of the test compound, 0.02 ml of a suspension of zymosan suspended in physiological saline (Otsuka Pharmaceutical) at 1 mg/ml was subcutaneously administered to right hind leg footpad of each mouse. One and two hours after the administration of the zymosan suspension, volume of the right hind leg footpad was measured by using an apparatus for measuring a volume of mouse hind leg footpad edema (Unicom). A difference of the volume of footpad measured above and the footpad volume before the administration of the test compound measured beforehand was regarded as a volume of the edema. For the volume of the edema at 1 hour or 2 hours after the zymosan administration, a graph was prepared by indicating time in abscissa and the edema volume in ordinate, and an edema volume AUC (area under the curve) was obtained up to 2 hours by calculation using the following equation. Edema volume AUC (1·hour)=1/2×1×A+1×(A+B)/2 • A: Edema volume 1 hour after zymosan administration • B: Edema volume 2 hour after zymosan administration A suppression ratio on edema of test compound was obtained by calculation using the following equation. Edema suppression ratio (%)=[1−B/A]×100 • A: Edema volume AUC of positive control • B: Edema volume AUC of test compound administered group (2) Measurement Results

[4] = system: PGD2 production from IgE-stimulated RBL-2H3 cells; assay: Suppressing action on PGD2 production from IgE-stimulated RBL-2H3 cells; format: cell-based; conditions: Rattus norvegicus, 10 min, IgE/DNP-BSA stimulated RBL-2H3 cells, read-out: PGD2 production suppression ratio
Source text: (§1) 2. Suppressing Action on PGD2 and LTB4 Production from IgE-Stimulated RBL-2H3 Cells
(§2) Suppressing action on PGD2 and LTB4 production caused by IgE as an allergic stimulant was investigated by the following method. Cells of RBL-2H3, which is a rat mastocytoma cell line (purchased from ATCC), were suspended in DEMEM medium (GIBCO) containing 10% fetal bovine serum (BioFluid), inoculated to each well of 48-well culture plate at a density of 2×10^4 cells/well and cultured overnight. Then, IgE antiserum directed to dinitrophenylated BSA (henceforth DNP-BSA) was further added to each well, and the cells were cultured for 30 minutes. Then, the medium was changed to DEMEM medium containing 0.5% fetal bovine serum, a test compound was added with each well, and DNP-BSA was further added at a final concentration of 100 ng/ml as a stimulant. Ten minutes after the stimulant was added, the culture supernatant was collected, and the PGD2 concentration and LTB4 concentration in the culture supernatant were measured by using EIA kit (CAYMAN). By using a well which was not added with the stimulant as a negative control and a well which was added only with the stimulant as a positive control, suppressing ratios on mediator production were calculated from the production amounts of the mediators in the well added with the test compound using the following equation. PGD2 or LTB4 production suppression ratio=[1−(C−B)/(A−B)]×100 • A: PGD2 or LTB4 production amount of positive control • B: PGD2 or LTB4 production amount of negative control • C: PGD2 or LTB4 production amount in well added with test compound
(§3) Further, as control compounds for comparison, reference compound (1), 3-(2-cyclohexylmethyloxy-1,1′-biphenyl-5-yl)propionic acid described in WO99/19291, reference compounds (2) and (3), [2-(5,6,7,8-tetrahydro-5,5,8,8-tetramethyl-2-naphthalenyl)methyloxy-1,1′-biphenyl-5-yl]carboxylic acid [reference compound (2)] and 3-[3′-carboxy-2-(5,6,7,8-tetrahydro-5,5,8,8-tetramethyl-2naphthalenyl)methyloxy-1,1′-biphenyl-6-yl]propionic acid [reference compound (3)] described in U.S. Pat. No. 5,391,817 and Japanese Patent Unexamined Publication (Kokai) No. 7-22399, respectively, were used, and activities thereof were similarly measured.

[5] = system: LTB4 production from IgE-stimulated RBL-2H3 cells; assay: Suppressing action on LTB4 production from IgE-stimulated RBL-2H3 cells; format: cell-based; conditions: Rattus norvegicus, 10 min, IgE/DNP-BSA stimulated RBL-2H3 cells, read-out: LTB4 production suppression ratio
Source text: as §1, §2, §3

In the case of `Nc1cc(CCC(=O)O)cc(-c2ccc3[nH]ccc3c2)c1OCC1CCCC1` [Compound 266, 3-[3-amino-4-cyclopentylmethyloxy-5-(1H-indol-5-yl)phenyl]propionic acid], the inhibition at 0.4 µM [1] is reported as ≥ 50% and the “suppression of footpad edema caused by IgE stimulation” value (“suppression … by IgE stimulation” below) [2] is reported as “suppressed the footpad edema”.
In the case of `O=C(O)CCc1ccc(OCc2ccc(Br)cc2F)c(-c2ccc3[nH]ccc3c2)c1` [Compound 168], the “suppression of footpad edema caused by zymosan” value (“suppression … by zymosan” for short) [3] is reported as “suppressed footpad edema” and the “suppression … by IgE stimulation” value [2] is reported as “suppressed the footpad edema”.
`O=C(O)CCc1ccc(OCc2ccc3ccccc3c2)c(-c2ccc3[nH]ccc3c2)c1` [Compound 192, 3-{3-(1H-indol-5-yl)-4-[(Naphthalen-2-yl)methyloxy]phenyl}propionic acid] was tested, and the inhibition at 0.4 µM [1] was ≥ 50% and the “suppression … by IgE stimulation” value [2] was “suppressed the footpad edema”.
For `O=C(O)CCc1ccc(OCCc2ccc(Cl)cc2)c(-c2ccc3[nH]ccc3c2)c1` [Compound 213, 3-{4-[2-(4-chlorophenyl)ethyloxy]-3-(1H-indol-5-yl)phenyl}propionic acid], the inhibition at 0.4 µM [1] was ≥ 50% and the “suppression … by IgE stimulation” value [2] was “suppressed the footpad edema”.
With `O=C(O)CCc1ccc(OCc2ccc(F)c(F)c2)c(-c2ccc3[nH]ccc3c2)c1` [Compound 158, 3-[4-(3,4-difluorophenylmethyloxy)-3-(1H-indol-5-yl)phenyl]propionic acid] the inhibition at 0.4 µM [1] was ≥ 50% and the “suppression … by IgE stimulation” value [2] was “suppressed the footpad edema”.
For `O=C(O)CCc1ccc(OCC2CCCCC2)c(-c2ccc3ccccc3c2)c1` [Compound 066, 3-[4-cyclohexylmethyloxy-3-(naphthalen-2-yl)phenyl]propionic acid], the inhibition at 0.4 µM [1] was ≥ 50%, the “suppression … by zymosan” value [3] was “suppressed footpad edema” and the inhibition at 0.4 µM [4] was ≥ 50%. For the same compound, the inhibition at 0.4 µM [5] was ≥ 50%.
For `Cn1ccc2cc(-c3cc(CCC(=O)O)ccc3OCC3CCCC3)ccc21` [Compound 235, 3-[4-cyclopentylmethyloxy-3-(1-methyl-1H-indol-5-yl)phenyl]propionic acid], the inhibition at 0.4 µM [1] was ≥ 50%, the “suppression … by zymosan” value [3] was “suppressed footpad edema” and the inhibition at 0.4 µM [4] was ≥ 50%. For the same compound, the inhibition at 0.4 µM [5] was ≥ 50%.
In the case of `O=C(O)CCc1ccc(OC2CCCCC2)c(-c2ccc3[nH]ccc3c2)c1` [Compound 104, 3-[4-cyclohexyloxy-3-(1H-indol-5-yl)phenyl]propionic acid], the inhibition at 0.4 µM [1] is reported as ≥ 50%, the “suppression … by zymosan” value [3] is reported as “suppressed footpad edema” and the inhibition at 0.4 µM [4] is reported as ≥ 50%. For the same compound, the inhibition at 0.4 µM [5] was ≥ 50%.
In the case of `O=C(O)CCc1ccc(OCC2CCCC2)c(-c2ccc3c(O)cccc3c2)c1` [Compound 010, 3-[4-cyclopentylmethyloxy-3-(5-hydroxynaphthalen-2-yl)phenyl]propionic acid], the inhibition at 0.4 µM [1] is reported as ≥ 50%, the “suppression … by zymosan” value [3] is reported as “suppressed footpad edema” and the inhibition at 0.4 µM [4] is reported as ≥ 50%. The inhibition at 0.4 µM [5] was ≥ 50%.
In the case of `O=C(O)CCc1ccc(OC2CCCC2)c(-c2ccc3[nH]ccc3c2)c1` [Compound 102, 3-[4-cyclopentyloxy-3-(1H-indol-5-yl)phenyl]propionic acid], the inhibition at 0.4 µM [1] is reported as ≥ 50%, the “suppression … by zymosan” value [3] is reported as “suppressed footpad edema” and the inhibition at 0.4 µM [4] is reported as ≥ 50%. For the same compound, the inhibition at 0.4 µM [5] was ≥ 50%.
With `Nc1nc2ccc(-c3cc(CCC(=O)O)ccc3OC3CCCCC3)cc2s1` [Compound 295, 3-[3-(2-aminobenzothiazol-6-yl)-4-cyclohexyloxyphenyl]propionic acid] the inhibition at 0.4 µM [1] was ≥ 50%, the “suppression … by zymosan” value [3] was “suppressed footpad edema” and the inhibition at 0.4 µM [4] was ≥ 50%. For the same compound, the inhibition at 0.4 µM [5] was ≥ 50%.
`O=C(O)CCc1ccc(OCc2ccc(-c3ccccc3)cc2)c(-c2ccc3[nH]ccc3c2)c1` [Compound 179, 3-{4-[(biphenyl-4-yl)methyloxy]-3-(1H-indol-5-yl)phenyl}propionic acid] was tested, and the inhibition at 0.4 µM [1] was ≥ 50%, the “suppression … by zymosan” value [3] was “suppressed footpad edema” and the inhibition at 0.4 µM [4] was ≥ 50%. The inhibition at 0.4 µM [5] was ≥ 50%.
In the case of `O=C(O)CCc1ccc(OCc2cccc(Cl)c2)c(-c2ccc3[nH]ccc3c2)c1` [Compound 150, 3-[4-(3-chlorophenylmethyloxy)-3-(1H-indol-5-yl)phenyl]propionic acid], the inhibition at 0.4 µM [1] is reported as ≥ 50%, the “suppression … by zymosan” value [3] is reported as “suppressed footpad edema” and the inhibition at 0.4 µM [4] is reported as ≥ 50%. For the same compound, the inhibition at 0.4 µM [5] was ≥ 50%.
For `O=C(O)CCc1ccc(OCCc2ccccc2)c(-c2ccc3ccccc3c2)c1` [Compound 051, 3-[3-(naphthalen-2-yl)-4-(2-phenylethyloxy)phenyl]propionic acid], the inhibition at 0.4 µM [1] was ≥ 50% and the “suppression … by IgE stimulation” value [2] was “suppressed the footpad edema”.
`O=C(O)CCc1ccc(OCc2ccccc2)c(-c2ccc3[nH]ccc3c2)c1` [Compound 325, 3-[4-benzyloxy-3-(1H-indol-5-yl)phenyl]propionic acid] was tested, and the inhibition at 0.4 µM [1] was ≥ 50% and the “suppression … by IgE stimulation” value [2] was “suppressed the footpad edema”.
In the case of `O=C(O)CCc1ccc(OCc2ccc(F)cc2F)c(-c2ccc3[nH]ccc3c2)c1` [Compound 156, 3-[4-(2,4-difluorophenylmethyloxy)-3-(1H-indol-5-yl)phenyl]propionic acid], the inhibition at 0.4 µM [1] is reported as ≥ 50% and the “suppression … by IgE stimulation” value [2] is reported as “suppressed the footpad edema”.
